Measured values reported in patent US12077503B2, “Substituted cyclic amides and their use as herbicides” (FMC CORPORATION, priority 2015, dated 2024).

Tests used:
Type in all cases: in vivo
[1] = test system: ryegrass, Italian (Italian ryegrass, Lolium multiflorum); assay: Test A postemergence; settings: Lolium multiflorum, post-emergence, 240 h, 125 g ai/ha, Postemergence; visual injury after approximately 10 d; 0 to 100 scale where 0 is no effect and 100 is complete control; read-out: Plant response rating, Ryegrass, Italian
Procedure, shortened: (§1)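 Ratings of 0 (no effect) to 100 (complete control) come from visual comparison with untreated controls roughly 10 d after treatment. Test chemicals, formulated in a non-phytotoxic solvent mixture with surfactant, were applied either as a preemergence directed soil spray on seeded soil or postemergence to one- to two-leaf plants 2 to 10 cm tall.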

[2] = test system: blackgrass (Alopecurus myosuroides); assay: Test A postemergence; settings: Alopecurus myosuroides, post-emergence, 240 h, 125 g ai/ha, Postemergence; visual injury after approximately 10 d; 0 to 100 scale where 0 is no effect and 100 is complete control; read-out: Plant response rating, Blackgrass
Procedure, shortened: as §1

[3] = test system: pigweed (Amaranthus retroflexus); assay: Test A postemergence; settings: Amaranthus retroflexus, post-emergence, 240 h, 125 g ai/ha, Postemergence; visual injury after approximately 10 d; 0 to 100 scale where 0 is no effect and 100 is complete control; read-out: Plant response rating, Pigweed
Procedure, shortened: as §1

[4] = test system: wheat (Triticum aestivum); assay: Test A postemergence; settings: Triticum aestivum, post-emergence, 240 h, 125 g ai/ha, Postemergence; visual injury after approximately 10 d; 0 to 100 scale where 0 is no effect and 100 is complete control; read-out: Plant response rating, Wheat
Procedure, shortened: as §1

[5] = test system: giant foxtail (Setaria faberii); assay: Test A postemergence; settings: Setaria faberi, post-emergence, 240 h, 125 g ai/ha, Postemergence; visual injury after approximately 10 d; 0 to 100 scale where 0 is no effect and 100 is complete control; read-out: Plant response rating, Foxtail, Giant
Procedure, shortened: as §1

[6] = test system: ryegrass, Italian (Italian ryegrass, Lolium multiflorum); assay: Test A preemergence; settings: Lolium multiflorum, pre-emergence, 240 h
Procedure, shortened: as §1

[7] = test system: barnyardgrass (Echinochloa crus-galli); assay: Test A preemergence; settings: Echinochloa crus-galli, pre-emergence, 240 h
Procedure, shortened: as §1

[8] = test system: pigweed (Amaranthus retroflexus); assay: Test A preemergence; settings: Amaranthus retroflexus, pre-emergence, 240 h
Kochia (Kochia scoparia) = assay: Test A preemergence; settings: Bassia scoparia, pre-emergence, 240 h, 500 g ai/ha, preemergence; visual injury rating about 10 d after treatment, 0 to 100 scale (0 no effect, 100 complete control); read-out: Kochia plant response rating
Procedure, shortened: as §1

[9] = test system: ragweed (common ragweed, Ambrosia elatior); assay: Test A preemergence; settings: Ambrosia artemisiifolia, pre-emergence, 240 h
Procedure, shortened: as §1

[10] = test system: giant foxtail (Setaria faberii); assay: Test A preemergence; settings: Setaria faberi, pre-emergence, 240 h
Procedure, shortened: as §1

[11] = test system: barnyardgrass (Echinochloa crus-galli); assay: Test B flooded paddy test; settings: Echinochloa crus-galli, Flood, 250 g ai/ha; scale of 0 to 100 where 0 is no effect and 100 is complete control; read-out: Barnyardgrass plant response rating
Procedure, shortened: (§2)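 Rating scale 0–100 (visual, vs untreated controls) after a 13–15 d greenhouse period; application to the flood layer, 3 cm above soil and maintained; plants at 2-leaf stage when treated.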

rice (Oryra sativa) = assay: Test B flooded paddy test; settings: Oryza sativa, Flood, 250 g ai/ha; scale of 0 to 100 where 0 is no effect and 100 is complete control; read-out: Rice plant response rating
Procedure, shortened: as §2

[12] = test system: ducksalad (Heteranthera limosa); assay: Test B flooded paddy test; settings: Heteranthera limosa, Flood, 250 g ai/ha; scale of 0 to 100 where 0 is no effect and 100 is complete control; read-out: Ducksalad plant response rating
Procedure, shortened: as §2

[13] = test system: sedge, umbrella (small-flower umbrella sedge, Cyperus difformis); assay: Test B flooded paddy test; settings: Cyperus difformis, 250 g ai/ha, Flood; 0 to 100 scale where 0 is no effect and 100 is complete control; read-out: Sedge, Umbrella plant response rating
Procedure, shortened: as §2

CN1C[C@H](c2cc(F)cc(C(F)(F)F)c2)[C@@H](C(=O)Nc2cccc(Cl)c2F)C1=O [Compound 995]
pest or weed control at 125 g/ha [1]: 30% | pest or weed control at 125 g/ha [2]: 50% | pest or weed control at 125 g/ha [3]: 0% | plant injury at 125 g/ha [4]: 20% | pest or weed control at 125 g/ha [5]: 80% | pest or weed control at 125 g/ha ([6]; 125 g ai/ha, Preemergence, visual injury rating after approximately 10 d, read-out: Ryegrass, Italian plant response rating (0 to 100 scale, 0 is no effect, 100 is complete control)): 20% | pest or weed control at 500 g/ha ([6]; 500 g ai/ha, preemergence, visual injury rating about 10 d after treatment, 0 to 100 scale (0 no effect, 100 complete control), read-out: Ryegrass, Italian plant response rating): 50% | pest or weed control at 125 g/ha ([7]; 125 g ai/ha, Preemergence, visual injury rating after approximately 10 d, read-out: Barnyardgrass plant response rating (0 to 100 scale, 0 is no effect, 100 is complete control)): 80% | pest or weed control at 500 g/ha ([7]; 500 g ai/ha, preemergence, visual injury rating about 10 d after treatment, 0 to 100 scale (0 no effect, 100 complete control), read-out: Barnyardgrass plant response rating): 90% | pest or weed control at 125 g/ha ([8]; 125 g ai/ha, Preemergence, visual injury rating after approximately 10 d, read-out: Pigweed plant response rating (0 to 100 scale, 0 is no effect, 100 is complete control)): 20% | pest or weed control at 500 g/ha ([8]; 500 g ai/ha, preemergence, visual injury rating about 10 d after treatment, 0 to 100 scale (0 no effect, 100 complete control), read-out: Pigweed plant response rating): 30% | pest or weed control at 500 g/ha (Kochia (Kochia scoparia)): 0% | pest or weed control at 125 g/ha ([9]; 125 g ai/ha, Preemergence, visual injury rating after approximately 10 d, read-out: Ragweed plant response rating (0 to 100 scale, 0 is no effect, 100 is complete control)): 0% | pest or weed control at 500 g/ha ([9]; 500 g ai/ha, preemergence, visual injury rating about 10 d after treatment, 0 to 100 scale (0 no effect, 100 complete control), read-out: Ragweed plant response rating): 20% | pest or weed control at 125 g/ha ([10]; 125 g ai/ha, Preemergence, visual injury rating after approximately 10 d, read-out: Foxtail, Giant plant response rating (0 to 100 scale, 0 is no effect, 100 is complete control)): 90% | pest or weed control at 500 g/ha ([10]; 500 g ai/ha, preemergence, visual injury rating about 10 d after treatment, 0 to 100 scale (0 no effect, 100 complete control), read-out: Foxtail, Giant plant response rating): 90% | pest or weed control at 250 g/ha [11]: 25% | pest or weed control at 250 g/ha (rice (Oryra sativa)): 0% | pest or weed control at 250 g/ha [12]: 70% | pest or weed control at 250 g/ha [13]: 30%
